# Test results taken from patent US20220259202A1, “1-(4-(AMINOMETHYL)BENZYL)-2-BUTYL-2H-PYRAZOLO[3,4-C]QUINOLIN-4-AMINE DERIVATIVES AND RELATED COMPOUNDS AS TOLL-LIKE RECEPTOR (TLR) 7/8 AGONISTS, AS WELL AS ANTIBODY DRUG CONJUGATES THEREOF FOR USE IN CANCER THERAPY AND DIAGNOSIS” (SUTRO BIOPHARMA, INC., priority 2019, published 2022).
# Legend:
# mouse TLR3 = target: T1, mouse TLR3 (Mus musculus, UniProt Q99MB1); assay: HEK293 SEAP reporter assay, other TLRs (Biological Example 3); assay type: cell-based; settings: 16 hrs, up to 1 μM
# T1 construct: host or cells: HEK293
# T1 sequence (Q99MB1 26-905): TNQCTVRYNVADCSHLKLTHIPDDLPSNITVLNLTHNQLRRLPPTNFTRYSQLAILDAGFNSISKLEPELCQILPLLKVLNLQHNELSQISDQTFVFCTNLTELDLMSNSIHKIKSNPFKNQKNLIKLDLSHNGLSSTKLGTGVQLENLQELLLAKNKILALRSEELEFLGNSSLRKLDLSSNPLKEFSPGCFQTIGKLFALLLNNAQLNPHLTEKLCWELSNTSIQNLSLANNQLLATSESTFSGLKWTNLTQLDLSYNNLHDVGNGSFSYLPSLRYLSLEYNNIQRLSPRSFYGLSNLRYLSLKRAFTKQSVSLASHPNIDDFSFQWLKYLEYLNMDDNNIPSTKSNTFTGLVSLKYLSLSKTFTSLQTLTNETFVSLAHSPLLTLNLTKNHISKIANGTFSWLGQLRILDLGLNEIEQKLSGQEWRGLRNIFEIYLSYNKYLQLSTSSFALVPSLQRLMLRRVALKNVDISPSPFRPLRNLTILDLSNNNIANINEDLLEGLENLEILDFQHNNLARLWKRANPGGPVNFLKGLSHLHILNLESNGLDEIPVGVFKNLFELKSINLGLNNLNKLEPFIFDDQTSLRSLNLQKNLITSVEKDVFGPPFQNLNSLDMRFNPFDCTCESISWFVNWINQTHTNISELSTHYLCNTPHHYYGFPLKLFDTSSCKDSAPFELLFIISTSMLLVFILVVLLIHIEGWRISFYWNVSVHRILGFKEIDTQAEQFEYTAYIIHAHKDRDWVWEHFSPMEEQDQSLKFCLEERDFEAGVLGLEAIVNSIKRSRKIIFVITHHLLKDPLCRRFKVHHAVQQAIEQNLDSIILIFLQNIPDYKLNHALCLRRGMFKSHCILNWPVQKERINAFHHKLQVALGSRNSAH
# Text: (§1) In this example, the activity of the Compound 1 to stimulate different human and mouse TLR pathways was investigated on HEK293 cells transfected with inducible SEAP (secreted embryonic alkaline phosphatase) reporter genes and also expressing different human TLRs (TLR2, TLR3, TLR4, TLR5, TLR7, TLR8, TLRS) or mouse TLRs (TLR2, TLR3, TLR4, TLR5, TLR7, TLR8, TLR13). Compound A
# (§2) HEK293 reporter cell lines were purchased from Invivogen and cell lines were maintained in manufacture recommended culture medium with required supplemental antibiotics. On the day of assay, the cells were harvested with Accutase and counted by the Vi-CELL Cell Viability Analyzers. Cells were re-suspended in HEK blue detection medium and a total of 10000 cells were seeded in each well of a 384-well flat bottom plate. […] Assay plates were cultured at 37° C. in a CO2 incubator for 16 hrs. HEK-Blue™ Detection medium changes to a purple/blue color in the presence of secreted SEAP, which can be detected by spectrophotometry at 620-655 nm. Data was fitted with non-linear regression analysis, using a log(inhibitor) vs. response-variable slope, 3-parameter fit with GraphPad Prism.
# mouse TLR4 = target: T2, mouse TLR4 (Mus musculus, UniProt Q9JHF9+Q9QUK6); assay: as above; assay type: cell-based; settings: 16 hrs, up to 1 μM
# T2 construct: host or cells: HEK293
# T2 sequence (Q9QUK6 26-835): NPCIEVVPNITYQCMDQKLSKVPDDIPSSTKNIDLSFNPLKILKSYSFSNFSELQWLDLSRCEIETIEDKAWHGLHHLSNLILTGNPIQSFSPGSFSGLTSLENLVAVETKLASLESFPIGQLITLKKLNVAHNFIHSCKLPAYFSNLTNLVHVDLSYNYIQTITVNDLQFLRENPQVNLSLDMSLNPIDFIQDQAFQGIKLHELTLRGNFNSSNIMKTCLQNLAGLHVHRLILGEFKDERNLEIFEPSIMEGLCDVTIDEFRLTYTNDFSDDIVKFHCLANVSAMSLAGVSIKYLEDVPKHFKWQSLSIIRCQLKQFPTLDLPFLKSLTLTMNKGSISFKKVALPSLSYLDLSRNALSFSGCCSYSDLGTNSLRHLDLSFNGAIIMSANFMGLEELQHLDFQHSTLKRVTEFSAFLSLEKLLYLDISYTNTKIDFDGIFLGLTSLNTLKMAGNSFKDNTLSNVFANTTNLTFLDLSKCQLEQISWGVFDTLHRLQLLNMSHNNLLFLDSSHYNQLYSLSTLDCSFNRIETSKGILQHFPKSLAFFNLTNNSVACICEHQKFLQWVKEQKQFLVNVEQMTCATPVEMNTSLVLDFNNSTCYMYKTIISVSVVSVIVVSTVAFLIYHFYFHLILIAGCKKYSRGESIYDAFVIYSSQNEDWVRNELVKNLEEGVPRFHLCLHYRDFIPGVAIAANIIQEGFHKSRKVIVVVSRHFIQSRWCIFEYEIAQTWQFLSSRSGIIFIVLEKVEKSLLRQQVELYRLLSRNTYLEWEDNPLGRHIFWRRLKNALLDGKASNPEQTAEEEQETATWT
# T2 sequence (Q9JHF9 19-160): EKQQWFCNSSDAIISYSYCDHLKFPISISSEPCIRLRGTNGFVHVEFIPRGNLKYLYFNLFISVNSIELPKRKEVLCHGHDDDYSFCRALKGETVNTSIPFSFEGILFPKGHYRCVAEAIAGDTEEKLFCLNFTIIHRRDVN
# Text: as §1, §2
EC50 (mouse TLR3) [µM],EC50 (mouse TLR4) [µM],SMILES
> 1,> 1,"CCCCn1nc2c(N)nc3ccccc3c2c1Cc1ccc(CN)cc1 [Compound 1, 1-(4-(aminomethyl)benzyl)-2-butyl-2H-pyrazolo[3,4-c]quinolin-4-amine]"
> 1,> 1,"CCCCc1nc2c(N)nc3ccccc3c2n1Cc1ccc(CN)cc1 [Compound A, reference compound]"
